According to PubChem BioAssay (NCI):
Where “and” joins values, the source holds several entries; their conditions need not be identical. Equal values may be shown once.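 Dose response: 5 concentrations. Exposure: 48 h. Format: 96-well plates. Endpoint: linear interpolation; highest concentration if not reached. GI50 marks 50% less growth. TGI: concentration producing complete growth inhibition.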

Legend:
Experiment in all cases: DTP human tumour cell line panel, 48 h
SF-268 CNS = system: SF-268 CNS
HT29 colon = system: HT29 colon
SNB-19 CNS = system: SNB-19 CNS
SK-MEL-28 melanoma = system: SK-MEL-28 melanoma
SF-295 CNS = system: SF-295 CNS
M14 melanoma = system: M14 melanoma
SF-539 CNS = system: SF-539 CNS
NCI-H23 lung = system: NCI-H23 lung
EKVX NSCLC = system: EKVX NSCLC
MDA-MB-435 = system: MDA-MB-435

## Cc1nc2c(o1)C(=Nc1ccccc1)c1nc(C)oc1C2=Nc1ccccc1
SF-268 CNS
  TGI: 47.9 µM
HT29 colon
  TGI: 45.5 µM
SNB-19 CNS
  TGI: 42.5 µM
SK-MEL-28 melanoma
  TGI: 44.9 µM
SF-295 CNS
  TGI: 46.7 µM
M14 melanoma
  TGI: > 100 µM
SF-539 CNS
  TGI: 27.3 µM
NCI-H23 lung
  TGI: 63.7 µM

## O=C(/C=C/c1cccc([N+](=O)[O-])c1)c1ccc([N+](=O)[O-])cc1
SF-268 CNS
  TGI: > 100 µM
HT29 colon
  TGI: > 100 µM
EKVX NSCLC
  TGI: > 100 µM
SNB-19 CNS
  TGI: > 100 µM
SK-MEL-28 melanoma
  TGI: > 100 µM
SF-295 CNS
  TGI: > 100 µM
M14 melanoma
  TGI: > 100 µM
SF-539 CNS
  TGI: > 100 µM
NCI-H23 lung
  TGI: > 100 µM

## CC1NC(=O)C2=C1C(=O)NC(=O)C2 (stereo unspecified)
SF-268 CNS
  GI50: > 100 µM
  TGI: > 100 µM
EKVX NSCLC
  GI50: > 100 µM
  TGI: > 100 µM
MDA-MB-435
  GI50: > 100 µM
  TGI: > 100 µM
SF-295 CNS
  GI50: > 100 µM
  TGI: > 100 µM
M14 melanoma
  GI50: > 100 µM
  TGI: > 100 µM
SF-539 CNS
  GI50: > 100 µM
  TGI: > 100 µM
NCI-H23 lung
  GI50: > 100 µM
  TGI: > 100 µM

## COC(=O)[C@@]12CC(C(C)C)[C@H]3CC(C(=O)C=C1OC)[C@H]32 (stereo partly specified)
SF-268 CNS
  TGI: > 100 µM
HT29 colon
  TGI: > 100 µM
EKVX NSCLC
  TGI: > 100 µM
SNB-19 CNS
  TGI: > 100 µM
SK-MEL-28 melanoma
  TGI: > 100 µM
SF-295 CNS
  TGI: > 100 µM
M14 melanoma
  TGI: > 100 µM
SF-539 CNS
  TGI: > 100 µM
NCI-H23 lung
  TGI: > 100 µM

## CN1CCN(C(=O)COc2ccc(/C=C3\CC4C5CC=C6CC(Cl)CCC6(C)C5CCC4(C)C3=O)cc2)CC1 (stereo unspecified)
SF-268 CNS
  GI50: > 100 µM
  TGI: > 100 µM
EKVX NSCLC
  GI50: > 100 µM
  TGI: > 100 µM
SNB-19 CNS
  GI50: > 100 µM
  TGI: > 100 µM
SK-MEL-28 melanoma
  GI50: > 100 µM
  TGI: > 100 µM
SF-295 CNS
  GI50: > 100 µM
  TGI: > 100 µM
M14 melanoma
  GI50: > 100 µM
  TGI: > 100 µM
SF-539 CNS
  GI50: > 100 µM
  TGI: > 100 µM
NCI-H23 lung
  GI50: > 100 µM
  TGI: > 100 µM

## CN(/N=C/c1ccnc2ccccc12)c1c([N+](=O)[O-])cc([N+](=O)[O-])cc1[N+](=O)[O-]
SF-268 CNS
  TGI: > 100 µM
HT29 colon
  TGI: > 100 µM
EKVX NSCLC
  TGI: > 100 µM
SNB-19 CNS
  TGI: > 100 µM
SK-MEL-28 melanoma
  TGI: > 100 µM
SF-295 CNS
  TGI: > 100 µM
M14 melanoma
  TGI: > 100 µM
SF-539 CNS
  TGI: > 100 µM
NCI-H23 lung
  TGI: > 100 µM

## Clc1cccc(-c2nnc(-c3nn(-c4ccccc4)c4nc5ccccc5nc34)o2)c1
SF-268 CNS
  TGI: > 100 µM
HT29 colon
  TGI: > 100 µM
EKVX NSCLC
  TGI: > 100 µM
SNB-19 CNS
  TGI: > 100 µM
SK-MEL-28 melanoma
  TGI: > 100 µM
SF-295 CNS
  TGI: > 100 µM
M14 melanoma
  TGI: > 100 µM
SF-539 CNS
  TGI: > 100 µM
NCI-H23 lung
  TGI: > 100 µM

## CC(=O)[CH-]C(=O)c1ccccc1.CC(=O)[CH-]C(=O)c1ccccc1.CC(=O)[CH-]C(=O)c1ccccc1.[Nd+3].[OH3+]
SF-268 CNS
  GI50: 41.3 µM
  TGI: > 100 µM
HT29 colon
  GI50: 30 µM
  TGI: > 100 µM
EKVX NSCLC
  GI50: 60.9 µM
  TGI: > 100 µM
SNB-19 CNS
  GI50: > 100 µM
  TGI: > 100 µM
SK-MEL-28 melanoma
  GI50: 66.9 µM
  TGI: > 100 µM
SF-295 CNS
  GI50: 21.2 µM
  TGI: 86.2 µM
M14 melanoma
  GI50: 43.2 µM
  TGI: > 100 µM
SF-539 CNS
  GI50: 52.9 µM
  TGI: > 100 µM
NCI-H23 lung
  GI50: 37.8 µM
  TGI: > 100 µM

## CC(C)CCCCCCCCCCCCC(=O)NCC(=O)NC1C(O)C(O)C(Nc2ncnc3nc[nH]c23)OC1C(O)CO (stereo unspecified)
HT29 colon
  TGI: 0.0109 µM and 0.0666 µM and 0.0148 µM
EKVX NSCLC
  TGI: 0.0228 µM and 0.0578 µM and 0.0199 µM
SNB-19 CNS
  TGI: 0.0121 µM and 0.00367 µM and 0.00683 µM
SK-MEL-28 melanoma
  GI50: 0.00334 µM and 0.0102 µM
  TGI: 0.37 µM and 0.797 µM
MDA-MB-435
  GI50: < 1e-05 µM
M14 melanoma
  GI50: < 1e-05 µM
NCI-H23 lung
  GI50: 0.005 µM
  TGI: 0.0354 µM and 0.0371 µM
